Experiments:
[1] = test system: traumatic brain injury in rats; settings: following traumatic brain injury in rats; cited from earlier work
primary cortical neurons = test: HCA oxidative stress neuroprotection assay (MTT); assay type: cell-based
Text: It has been shown that HDAC6 inhibition protects against neuronal degeneration and stimulates neurite outgrowth in dorsal root ganglion neurons, therefore indicating methods of treating CNS diseases. Accordingly, present HDACI compounds were examined in a model of oxidative stress induced by homocysteic acid (HCA). This model leads to depletion of glutathione, the major intracellular antioxidant. HDAC6 inhibition rescues neuronal death in this model, possibly by causing hyperacetylation of peroxiredoxins. […] (A. P. Kozikowski et al., J. Med. Chem. 2007, 50, 3054-61.)
FIGS. 1 and 2 contain neuroprotection bar graphs of the HCA oxidative stress test assay. Neurons were treated with TSA (FIG. 1) or a present HDACI compound (FIG. 2), alone or with the addition of HCA (homocysteic acid).
The data summarized in FIGS. 1 and 2 was obtained according to the following neuroprotective assay. Primary cortical neuron cultures were obtained from the cerebral cortex of fetal Sprague-Dawley rats (embryonic day 17). All experiments were initiated 24 hours after plating. Under these conditions, the cells are not susceptible to glutamate-mediated excitotoxicity. […] Viability was assessed after 24 hours by the MTT assay (3-(4,5-dimethylthiazol-2-yl)-2,5-diphenyltetrazolium bromide) method.

mice with colitis = test: colitis in mice; assay type: in vivo; settings: treatment begun once colitis had developed
Text: Studies of autoimmunity also are undertaken. In this case, interruption of existing disease is especially important and HDAC6 targeting can be efficacious without any requirement for additional therapy (in contrast to a need for brief low-dose RPM in the very aggressive, fully MHC-mismatched transplant models). […] These studies are extended by assessing whether deletion of HDAC6 in Tregs (Foxp3/Cre) vs. T cells (CD4=Cre) vs. DC (CD11c-Cre) differentially affect the development and severity of colitis. Similarly, control of colitis is assessed by inducing HDAC6 deletion at varying intervals after the onset of colitis with tamoxifen-regulated Cre.

HDAC7 = HDAC7 (Homo sapiens (Human), UniProt Q8WUI4); settings: read-out: HDAC Isoform IC50 (μM) 7
Chain of HDAC7 (Q8WUI4 whole entry, canonical isoform): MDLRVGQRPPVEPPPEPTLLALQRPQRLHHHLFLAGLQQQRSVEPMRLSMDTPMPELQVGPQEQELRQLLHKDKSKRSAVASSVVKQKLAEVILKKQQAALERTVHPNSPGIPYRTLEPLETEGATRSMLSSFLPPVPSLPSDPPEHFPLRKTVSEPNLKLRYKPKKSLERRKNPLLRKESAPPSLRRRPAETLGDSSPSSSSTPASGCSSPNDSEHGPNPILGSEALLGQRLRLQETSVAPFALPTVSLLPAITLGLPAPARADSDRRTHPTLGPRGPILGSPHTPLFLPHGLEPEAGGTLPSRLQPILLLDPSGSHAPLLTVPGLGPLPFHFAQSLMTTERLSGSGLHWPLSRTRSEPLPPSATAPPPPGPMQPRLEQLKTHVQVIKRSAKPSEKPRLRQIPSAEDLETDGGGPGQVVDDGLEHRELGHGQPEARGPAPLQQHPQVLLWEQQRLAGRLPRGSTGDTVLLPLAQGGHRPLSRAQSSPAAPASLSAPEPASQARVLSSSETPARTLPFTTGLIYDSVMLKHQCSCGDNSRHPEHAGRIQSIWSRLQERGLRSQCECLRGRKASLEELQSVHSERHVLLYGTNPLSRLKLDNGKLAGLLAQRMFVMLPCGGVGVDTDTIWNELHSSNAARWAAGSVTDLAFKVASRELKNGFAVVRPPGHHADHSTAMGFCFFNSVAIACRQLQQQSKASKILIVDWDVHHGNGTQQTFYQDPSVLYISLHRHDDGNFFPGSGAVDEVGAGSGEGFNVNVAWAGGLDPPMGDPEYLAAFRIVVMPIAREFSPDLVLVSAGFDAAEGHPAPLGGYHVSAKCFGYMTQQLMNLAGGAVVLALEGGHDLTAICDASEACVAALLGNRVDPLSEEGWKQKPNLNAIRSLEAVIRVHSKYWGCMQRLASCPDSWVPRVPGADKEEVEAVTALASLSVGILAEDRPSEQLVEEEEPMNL

HDAC5 = HDAC5 (Homo sapiens (Human), UniProt Q9UQL6); test: HDAC5 inhibition assay (Acetyl-Lys(trifluoroacetyl)-AMC substrate); assay type: biochemical; settings: average of two experiments; read-out: HDAC Isoform IC50 (μM) 5
Chain of HDAC5 (Q9UQL6 whole entry, canonical isoform): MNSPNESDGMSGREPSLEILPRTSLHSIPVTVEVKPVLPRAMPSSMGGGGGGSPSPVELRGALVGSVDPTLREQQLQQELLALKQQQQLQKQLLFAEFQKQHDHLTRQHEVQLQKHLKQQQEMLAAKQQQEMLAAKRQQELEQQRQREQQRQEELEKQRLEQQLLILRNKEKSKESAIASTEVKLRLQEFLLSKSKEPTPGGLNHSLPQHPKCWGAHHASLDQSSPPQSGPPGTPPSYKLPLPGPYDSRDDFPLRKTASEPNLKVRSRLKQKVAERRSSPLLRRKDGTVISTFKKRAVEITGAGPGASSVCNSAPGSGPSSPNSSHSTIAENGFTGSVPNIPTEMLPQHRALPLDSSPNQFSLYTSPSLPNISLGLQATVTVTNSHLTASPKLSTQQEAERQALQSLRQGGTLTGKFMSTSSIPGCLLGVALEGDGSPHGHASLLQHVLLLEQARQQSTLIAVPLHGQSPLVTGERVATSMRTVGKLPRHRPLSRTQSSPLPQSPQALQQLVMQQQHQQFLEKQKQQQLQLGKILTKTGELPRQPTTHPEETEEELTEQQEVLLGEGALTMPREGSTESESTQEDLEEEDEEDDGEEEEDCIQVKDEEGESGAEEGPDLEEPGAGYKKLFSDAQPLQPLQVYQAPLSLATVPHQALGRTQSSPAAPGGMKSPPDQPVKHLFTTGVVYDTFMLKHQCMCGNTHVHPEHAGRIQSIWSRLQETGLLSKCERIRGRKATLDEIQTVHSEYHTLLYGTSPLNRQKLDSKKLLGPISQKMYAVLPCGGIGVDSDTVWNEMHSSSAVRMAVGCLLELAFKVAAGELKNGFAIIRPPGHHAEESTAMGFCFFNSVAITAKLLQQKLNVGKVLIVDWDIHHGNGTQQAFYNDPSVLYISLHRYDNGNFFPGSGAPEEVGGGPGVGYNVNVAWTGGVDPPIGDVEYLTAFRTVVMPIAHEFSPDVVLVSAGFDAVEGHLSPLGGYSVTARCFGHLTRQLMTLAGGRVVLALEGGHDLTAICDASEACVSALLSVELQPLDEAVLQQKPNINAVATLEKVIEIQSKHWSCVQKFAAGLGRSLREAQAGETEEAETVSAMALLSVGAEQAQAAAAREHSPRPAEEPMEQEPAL

HDAC2 = HDAC2 (Homo sapiens (Human), UniProt Q92769); test: HDAC2 fluorogenic peptide deacetylation inhibition assay; assay type: biochemical; settings: average of two experiments; read-out: HDAC Isoform IC50 (μM) 2
Chain of HDAC2 (Q92769 whole entry, canonical isoform): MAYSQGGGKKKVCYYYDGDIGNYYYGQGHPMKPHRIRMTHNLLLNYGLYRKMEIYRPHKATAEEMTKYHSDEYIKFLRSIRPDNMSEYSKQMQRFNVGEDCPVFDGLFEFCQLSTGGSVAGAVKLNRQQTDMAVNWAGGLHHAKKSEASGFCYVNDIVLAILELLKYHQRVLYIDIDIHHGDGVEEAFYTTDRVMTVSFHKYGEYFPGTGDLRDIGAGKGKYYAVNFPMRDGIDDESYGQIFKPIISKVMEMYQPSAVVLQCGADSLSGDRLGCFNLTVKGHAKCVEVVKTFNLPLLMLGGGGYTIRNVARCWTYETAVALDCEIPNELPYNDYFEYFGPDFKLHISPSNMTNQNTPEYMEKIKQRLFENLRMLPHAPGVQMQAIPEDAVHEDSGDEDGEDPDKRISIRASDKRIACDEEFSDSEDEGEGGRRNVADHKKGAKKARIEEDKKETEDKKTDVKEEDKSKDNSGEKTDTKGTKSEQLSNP

CN(C)c1ccc(C(=O)NCCCCCNC(=O)CS)cc1 [DMA-PB, 4-dimethylamino-N-[5-(2-mercaptoacetylamino)pentyl]benzamide]
histone H3 acetylation [1]: increase histone H3 acetylation
microglia inflammatory response [1]: reduce microglia inflammatory response

CC(/C=C/C(=O)NO)=C\[C@@H](C)C(=O)c1ccc(N(C)C)cc1 [TSA, Trichostatin A]
neuroprotection in HCA-induced neurodegeneration assay (primary cortical neurons; 0.5 μM, HCA 5 mM, viability by MTT after 24 hours): moderately neuroprotective
neurotoxicity to primary cortical neurons (primary cortical neurons; higher concentrations than 0.5 μM): dose-dependant neurotoxicity

O=C(CCCCCCC(=O)Nc1ccc([C@H]2O[C@@H](CSc3nc(-c4ccccc4)c(-c4ccccc4)o3)C[C@@H](c3ccc(CO)cc3)O2)cc1)NO [Tubacin]
rescue of mice with established colitis (mice with colitis): able to rescue mice
IC50 (HDAC7): 9.7 µM
IC50 (HDAC5): 3.35 µM
IC50 (HDAC2): 6.27 µM
